From patent US10093630B2, “Pyrazole compounds and methods of making and using same” (ABIDE THERAPEUTICS, INC., priority 2014, dated 2018)

Legend:
Test in all cases: In vitro competitive activity-based protein profiling (gel-based, FP-Rh or HT-01 probe)
Assay type in all cases: biochemical
FAAH = molecular target: T1, FAAH (Mus musculus, UniProt O08914); conditions: for inhibition at 1 µM: 1 μM inhibitor, read-out: % Inhibition at 1 μM, B = FAAH; for inhibition at 10 µM: 10 μM inhibitor, read-out: % Inhibition at 10 μM, B = FAAH; for IC50: mouse brain membrane fraction or cell lysates, 30 min preincubation at 37° C., read-out: Mouse (IC50 value, nM) FAAH
T1 construct: Proteomes (mouse brain membrane fraction or cell lysates); from tissue; host or cells: mouse brain membrane fraction (or cell lysates, not specified)
T1 sequence (O08914 1-579): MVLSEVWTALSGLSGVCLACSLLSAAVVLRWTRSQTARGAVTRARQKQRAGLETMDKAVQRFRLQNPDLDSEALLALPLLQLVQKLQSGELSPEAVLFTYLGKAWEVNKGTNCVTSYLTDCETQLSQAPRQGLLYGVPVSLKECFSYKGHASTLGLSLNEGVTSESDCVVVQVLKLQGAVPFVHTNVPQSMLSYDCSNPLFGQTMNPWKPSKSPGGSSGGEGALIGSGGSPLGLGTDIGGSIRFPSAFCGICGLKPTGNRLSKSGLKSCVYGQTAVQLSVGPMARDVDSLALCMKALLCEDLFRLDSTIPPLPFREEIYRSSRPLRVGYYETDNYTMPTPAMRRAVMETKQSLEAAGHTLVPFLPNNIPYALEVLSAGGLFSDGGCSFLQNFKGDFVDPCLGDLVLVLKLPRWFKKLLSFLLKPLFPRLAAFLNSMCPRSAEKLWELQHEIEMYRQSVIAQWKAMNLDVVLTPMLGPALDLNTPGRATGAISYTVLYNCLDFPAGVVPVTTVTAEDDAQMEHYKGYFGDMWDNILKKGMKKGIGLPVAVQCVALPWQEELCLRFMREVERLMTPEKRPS
Protocol: (§1) In Vitro Competitive Activity-Based Protein Profiling.
(§2) Proteomes (mouse brain membrane fraction or cell lysates) (50 μL, 1.0 mg/mL total protein concentration) were preincubated with varying concentrations of inhibitors at 37° C. After 30 min, FP-Rh or HT-01 ([…], 50 μM in DMSO) was added and the mixture was incubated for another 30 min at 37° C. Reactions were quenched with SDS loading buffer (15 μL—4×) and run on SDS-PAGE. Following gel imaging, serine hydrolase activity was determined by measuring fluorescent intensity of gel bands corresponding to MAGL, ABHD6, FAAH, and PLA2G7 using ImageJ 1.43u software.

PLA2G7 = molecular target: T2, PLA2G7 (Mus musculus, UniProt Q60963); conditions: for inhibition at 1 µM: 1 μM inhibitor, read-out: % Inhibition at 1 μM, D = PLA2G7; for inhibition at 10 µM: 10 μM inhibitor, read-out: % Inhibition at 10 μM, D = PLA2G7
T2 construct: Proteomes (mouse brain membrane fraction or cell lysates); from tissue; host or cells: mouse brain membrane fraction (or cell lysates, not specified)
T2 sequence (Q60963 22-440): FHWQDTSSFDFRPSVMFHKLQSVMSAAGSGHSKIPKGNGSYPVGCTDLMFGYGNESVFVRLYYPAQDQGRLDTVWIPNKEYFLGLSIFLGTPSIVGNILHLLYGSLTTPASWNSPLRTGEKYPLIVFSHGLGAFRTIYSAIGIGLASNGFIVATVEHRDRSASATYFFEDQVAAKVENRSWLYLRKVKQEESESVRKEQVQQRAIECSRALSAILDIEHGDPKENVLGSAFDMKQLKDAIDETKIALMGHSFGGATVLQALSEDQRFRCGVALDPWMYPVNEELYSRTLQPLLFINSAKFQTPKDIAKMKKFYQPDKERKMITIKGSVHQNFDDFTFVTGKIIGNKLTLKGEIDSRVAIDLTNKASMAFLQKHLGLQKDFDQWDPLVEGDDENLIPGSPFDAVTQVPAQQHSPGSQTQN
Protocol: as §1, §2

MAGL = molecular target: T3, MAGL (Mus musculus, UniProt O35678); conditions: for inhibition at 1 µM: 1 μM inhibitor; for inhibition at 10 µM: 10 μM inhibitor; for IC50: mouse brain membrane fraction or cell lysates, 30 min preincubation at 37° C., read-out: Mouse (IC50 value, nM) MAGL
T3 construct: Proteomes (mouse brain membrane fraction or cell lysates); from tissue; host or cells: mouse brain membrane fraction (or cell lysates, not specified)
T3 sequence (O35678 1-303): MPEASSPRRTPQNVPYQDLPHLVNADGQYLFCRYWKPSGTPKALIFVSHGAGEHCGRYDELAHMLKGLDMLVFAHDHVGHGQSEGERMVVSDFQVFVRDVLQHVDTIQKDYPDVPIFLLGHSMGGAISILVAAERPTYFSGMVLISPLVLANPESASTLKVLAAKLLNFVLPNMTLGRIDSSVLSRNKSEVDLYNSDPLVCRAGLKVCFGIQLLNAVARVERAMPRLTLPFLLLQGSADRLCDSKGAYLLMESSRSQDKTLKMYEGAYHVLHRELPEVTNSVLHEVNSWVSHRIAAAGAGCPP
Protocol: as §1, §2

ABHD6 = molecular target: T4, ABHD6 (Mus musculus, UniProt Q8R2Y0); conditions: for inhibition at 1 µM: 1 μM inhibitor, read-out: % Inhibition at 1 μM, C = ABHD6; for inhibition at 10 µM: 10 μM inhibitor, read-out: % Inhibition at 10 μM, C = ABHD6; for IC50: mouse brain membrane fraction or cell lysates, 30 min preincubation at 37° C., read-out: Mouse (IC50 value, nM) ABHD6
T4 construct: Proteomes (mouse brain membrane fraction or cell lysates); from tissue; host or cells: mouse brain membrane fraction (or cell lysates, not specified)
T4 sequence (Q8R2Y0 1-336): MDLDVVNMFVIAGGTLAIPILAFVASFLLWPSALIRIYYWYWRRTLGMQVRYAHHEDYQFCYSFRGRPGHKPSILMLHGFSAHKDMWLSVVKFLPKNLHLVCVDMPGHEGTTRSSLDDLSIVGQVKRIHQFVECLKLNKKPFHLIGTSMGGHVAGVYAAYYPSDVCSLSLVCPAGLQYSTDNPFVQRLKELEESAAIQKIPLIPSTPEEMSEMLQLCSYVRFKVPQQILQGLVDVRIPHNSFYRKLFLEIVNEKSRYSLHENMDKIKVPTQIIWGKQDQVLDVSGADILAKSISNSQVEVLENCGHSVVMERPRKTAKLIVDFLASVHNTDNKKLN
Protocol: as §1, §2

| Compound | inhibition at 1 µM (FAAH) [%] | inhibition at 10 µM (FAAH) [%] | inhibition at 1 µM (PLA2G7) [%] | inhibition at 10 µM (PLA2G7) [%] | inhibition at 1 µM (MAGL) [%] | inhibition at 10 µM (MAGL) [%] | inhibition at 1 µM (ABHD6) [%] | inhibition at 10 µM (ABHD6) [%] | IC50 (FAAH) [nM] | IC50 (MAGL) [nM] | IC50 (ABHD6) [nM] |
| --- | --- | --- | --- | --- | --- | --- | --- | --- | --- | --- | --- |
| O=C(N1CCCCC1)n1cccn1 [Example 1, Piperidin-1-yl(1H-pyrazol-1-yl)methanone] | < 25 | > 75 | < 25 | 25 to 75 | < 25 | 25 to 75 | < 25 | > 75 |  |  |  |
| Cc1cnn(C(=O)N2CCCCC2)c1 [Example 2, (4-Methyl-1H-pyrazol-1-yl)(piperidin-1-yl)methanone] | < 25 | > 75 | < 25 | > 75 | < 25 | 25 to 75 | 25 to 75 | > 75 |  |  |  |
| N#Cc1cnn(C(=O)N2CCCCC2)c1 [Example 3, 1-(Piperidine-1-carbonyl)-1H-pyrazole-4-carbonitrile] | > 75 | > 75 | > 75 | > 75 | > 75 | > 75 | > 75 | > 75 |  |  |  |
| O=C(N1CCN(Cc2c(N3CCCC3)cccc2C(F)(F)F)CC1)n1cc(F)cn1 [Example 113, (4-Fluoro-1H-pyrazol-1-yl)(4-(2-(pyrrolidin-1-yl)-6-(trifluoromethyl)benzyl)piperazin-1-yl)methanone] | 25 to 75 | > 75 |  |  | > 75 | > 75 | > 75 | > 75 | > 1000 | < 100 | 100 to 1000 |
| Cc1ccccc1-c1cnn(C(=O)N2CCN(Cc3c(N4CCCC4)cccc3C(F)(F)F)CC2)c1 [Example 114, (4-(2-(Pyrrolidin-1-yl)-6-(trifluoromethyl)benzyl)piperazin-1-yl)(4-(o-tolyl)-1H-pyrazol-1-yl)methanone] | < 25 | 25 to 75 |  |  | < 25 | < 25 | > 75 | > 75 |  |  | 100 to 1000 |
| Cc1cnn(C(=O)N2CCN(C(c3ccc(Cl)cc3)c3ccc(Cl)cc3)CC2)c1 [Example 117, (4-(Bis(4-chlorophenyl)methyl)piperazin-1-yl)(4-methyl-1H-pyrazol-1-yl)methanone] | < 25 | < 25 |  |  | > 75 | > 75 | < 25 | > 75 | > 1000 | < 100 | > 1000 |
| O=C(N1CCN(C(c2ccc(Cl)cc2)c2ccc(Cl)cc2)CC1)n1cc(C(F)(F)F)cn1 [Example 118, (4-(Bis(4-chlorophenyl)methyl)piperazin-1-yl)(4-(trifluoromethyl)-1H-pyrazol-1-yl)methanone] | < 25 | > 75 |  |  | > 75 | > 75 | > 75 | > 75 | > 1000 | < 100 | 100 to 1000 |
| O=C(N1CCN(C(c2ccc(Cl)cc2)c2ccc(Cl)cc2)CC1)n1cc(-c2ccccc2)cn1 [Example 119, (4-(Bis(4-chlorophenyl)methyl)piperazin-1-yl)(4-phenyl-1H-pyrazol-1-yl)methanone] | < 25 | < 25 |  |  | 25 to 75 | > 75 | < 25 | > 75 |  |  |  |
| CC(C)c1cnn(C(=O)N2CCN(C(c3ccc(Cl)cc3)c3ccc(Cl)cc3)CC2)c1 [Example 120, (4-(Bis(4-chlorophenyl)methyl)piperazin-1-yl)(4-isopropyl-1H-pyrazol-1-yl)methanone] | < 25 | < 25 |  |  | 25 to 75 | > 75 | 25 to 75 | > 75 |  |  |  |
| O=C(N1CCN(C(c2ccc(Cl)cc2)c2ccc(Cl)cc2)CC1)n1cc(F)cn1 [Example 121, (4-(Bis(4-chlorophenyl)methyl)piperazin-1-yl)(4-fluoro-1H-pyrazol-1-yl)methanone] | < 25 | > 75 |  |  | > 75 | > 75 | < 25 | > 75 | > 1000 | < 100 | > 1000 |
| O=C(N1CCN(Cc2ccc(C(F)(F)F)cc2N2CCCC2)CC1)n1cc(Cl)cn1 [Example 125, (4-Chloro-1H-pyrazol-1-yl)(4-(2-(pyrrolidin-1-yl)-4-(trifluoromethyl)benzyl)piperazin-1-yl)methanone] | < 25 |  |  |  | > 75 |  | > 75 |  | > 1000 | < 100 | 100 to 1000 |
| O=C(N1CCN(Cc2ccc(C(F)(F)F)cc2N2CCCC2)CC1)n1cc(F)cn1 [Example 126, (4-Fluoro-1H-pyrazol-1-yl)(4-(2-(pyrrolidin-1-yl)-4-(trifluoromethyl)benzyl)piperazin-1-yl)methanone] | > 75 |  |  |  | > 75 |  | > 75 |  | 100 to 1000 | < 100 | 100 to 1000 |
| CC(=O)N1CCCN(C(=O)n2cc(Cl)cn2)CC1 [Example 188, 1-(4-(4-Chloro-1H-pyrazole-1-carbonyl)-1,4-diazepan-1-yl)ethanone] |  | < 25 |  |  |  | < 25 |  | 25 to 75 |  |  |  |
| CN1CCCN(C(=O)n2cc(Cl)cn2)CC1 [Example 190, (4-Chloro-1H-pyrazol-1-yl)(4-methyl-1,4-diazepan-1-yl)methanone] |  | < 25 |  |  |  | < 25 |  | < 25 |  |  |  |
| Cc1cnn(C(=O)N(C)CCN(C)S(C)(=O)=O)c1 [Example 196, N,4-Dimethyl-N-(2-(N-methylmethylsulfonamido)ethyl)-1H-pyrazole-1-carboxamide] |  | < 25 |  |  |  | < 25 |  | < 25 |  |  |  |
